This test concerns the target CDK4/CyclinD1 (Homo sapiens, UniProt P11802). The test can be described thus: CDK4/CyclinD1 Flashplate assay, 96-well format, biotinylated-Rb peptide substrate. The class given is biochemical. The protocol: This is a CDK4/CyclinD1 kinase assay in a 96-well Streptavidin-coated Flashplate with a biotinylated-Rb peptide substrate.
Each point is tested in duplicate
Biotinylated-Rb: Biotin-[…]
• 1. Prepare substrate: 1 mg/ml solution made fresh in PBS. • 2. Add 100 μg per well to the Flashplate. • 3. Incubate for 2 hours at RT. • 4. From 10 mM inhibitor stocks in DMSO, make 1 mM, 300 μM, 100 μM, 30 μM and 10 μM series of dilution in DMSO. • 5. Wash the Flashplate 3 times with 300 μl PBS to remove unbound peptide substrate. • 6. Add the CDK4/CyclinD1 kinase: 70 ng per well, in a volume of 90 μl in kinase buffer (except for “no enzyme” control wells). • 7. Add 1 μl^1 per well of inhibitor to test 10 μM, 3 μM, 1 μM, 0.3 μM and 0.1 μM in final concentration per 100 μl in each well. • 8. Shake gently the Flashplate 1 minute. • 9. Incubate 30 minutes on wet ice. • 10. Initiate the reaction with 10 μl kinase buffer containing 1 μM final cold ATP and 1 μCi final ^33P-ATP per well. • 11. Shake gently the Flashplate 1 minute. • 12. Incubate 45 minutes at RT (no shaking). • 13. Wash the Flashplate 3 times with 300 μl PBS • 14. Count to detect the incorporation of ^33P-ATP by the kinase to the Rb phosphorylation site.

We go through 31 compounds from patent US20050014811A1, “Substituted benzimidazole compounds and their use for the treatment of cancer” (Aventis Pharma S.A., priority 2001, published 2005).

Chain of CDK4/CyclinD1 (P11802 whole entry, species assumed): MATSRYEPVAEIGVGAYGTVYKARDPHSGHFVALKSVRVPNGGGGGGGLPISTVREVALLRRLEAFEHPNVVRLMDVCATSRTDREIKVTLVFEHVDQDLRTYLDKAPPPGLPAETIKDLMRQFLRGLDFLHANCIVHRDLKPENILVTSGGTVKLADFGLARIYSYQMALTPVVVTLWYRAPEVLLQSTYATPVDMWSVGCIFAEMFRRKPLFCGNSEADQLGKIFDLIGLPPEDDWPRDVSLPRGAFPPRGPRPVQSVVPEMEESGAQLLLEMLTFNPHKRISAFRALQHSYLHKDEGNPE
Chain of CDK4/CyclinD1 (P24385 whole entry partner, species assumed): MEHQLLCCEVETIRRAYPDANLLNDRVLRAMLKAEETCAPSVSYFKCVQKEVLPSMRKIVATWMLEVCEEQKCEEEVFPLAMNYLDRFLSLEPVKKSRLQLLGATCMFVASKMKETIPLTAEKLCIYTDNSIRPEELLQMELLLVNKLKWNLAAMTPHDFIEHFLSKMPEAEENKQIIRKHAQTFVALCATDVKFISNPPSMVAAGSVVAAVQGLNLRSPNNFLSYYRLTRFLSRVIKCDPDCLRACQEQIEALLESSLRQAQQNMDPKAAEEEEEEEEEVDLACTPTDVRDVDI

Turning to `CCOC(=O)C1CCN(C(=O)Nc2nc3cc(OS(=O)(=O)c4ccc(NC5CCCC5)cc4)ccc3[nH]2)CC1` [Example 58-t, 1-[5-(4-Cyclopentylamino-benzenesulfonyloxy)-1H-benzoimidazol-2-yl-carbamoyl]-piperidine-4-carboxylic acid ethyl ester], half-maximal inhibition (IC50) required 9000 nM. In other words, the single-digit micromolar range. Consider `O=C(Nc1nc2cc(OS(=O)(=O)c3ccc(NCCCCO)cc3)ccc2[nH]1)C1CC1` [Example 60-e, 4-(4-Hydroxy-butylamino)-benzenesulfonic acid 2-(cyclopropanecarbonyl-amino)-1H-benzoimidazol-5-yl ester], for which 900 nM corresponded to half-maximal inhibition (IC50). On the same count and under the same terms, to `O=C(Nc1nc2cc(OS(=O)(=O)c3ccc(NCCN4CCNCC4)cc3)ccc2[nH]1)C1CC1` [Example 60-aa, 4-(2-Piperazin-1-yl-ethylamino)-benzene-sulfonic acid 2-(cyclopropanecarbonyl-amino)-1H-benzoimidazol-5-yl ester] belongs 3900 nM. As to `COC(=O)Nc1nc2cc(OS(=O)(=O)c3ccc(OCC(=O)N4CCN(C)CC4)cc3)ccc2[nH]1` [Example 66-a, 4-[2-(4-Methyl-piperazin-1-yl)-2-oxo-ethoxy]-benzenesulfonic acid 2-methoxycarbonylamino-1H-benzoimidazol-5-yl ester], the inhibition (in general, the relative decrease from the control value, in per cent) at 10 µM stood at 19%. Take `CCN(CC)CCNc1ccc(S(=O)(=O)Oc2ccc3[nH]c(NC(=O)C4CC4)nc3c2)cc1` [Example 60-q, 4-(2-Diethylamino-ethylamino)-benzenesulfonic acid 2-(cyclopropanecarbonyl-amino)-1H-benzoimidazol-5-yl ester]: the 50% inhibitory concentration (IC50) (in general, the midpoint of a concentration-inhibition curve) came out at 1800 nM. On the same count and under the same terms, as for `O=C(Nc1nc2cc(OS(=O)(=O)c3ccc(NCc4cccnc4)cc3)ccc2[nH]1)C1CC1` [Example 60-m, 4-[(Pyridin-3-yl-methyl)-amino]-benzenesulfonic acid 2-(cyclopropanecarbonyl-amino)-1H-benzoimidazol-5-yl ester], the figure is 500 nM; as for `O=C(NCCCn1ccnc1)Nc1nc2cc(OS(=O)(=O)c3ccc(NC4CCCC4)cc3)ccc2[nH]1` [Example 58-p, 4-Cyclopentylamino-benzenesulfonic acid 2-[3-(3-imidazol-1-yl-propyl)-ureido]-1H-benzoimidazol-5-yl ester], 600 nM. Regarding `CC(CO)Nc1ccc(S(=O)(=O)Oc2ccc3[nH]c(NC(=O)NCCN4CCOCC4)nc3c2)cc1` (stereo not shown) [Example 78-i, 4-(2-Hydroxy-1-methyl-ethylamino)-benzenesulfonic acid 2-[3-(2-morpholin-4-yl-ethyl)-ureido]-1H-benzoimidazol-5-yl ester], at 10 µM the inhibition was 97%. In turn, `COC(=O)Nc1nc2cc(OS(=O)(=O)c3ccc(C#N)cc3)ccc2[nH]1` [Example 62-s, 4-Cyano-benzenesulfonic acid 2-methoxycarbonylamino-1H-benzoimidazol-5-yl ester] registered an IC50 of 1750 nM. `Nc1nc2cc(OS(=O)(=O)c3ccc(NC4CCCC4)cc3)ccc2[nH]1` [Example 22, 5-(4-cyclopentylaminophenylsulfonyloxy)-1H-benzimidazole-2-ylamine]: the midpoint of inhibition, the IC50, lay at 1770 nM. Take `COCC(C)Nc1ccc(S(=O)(=O)Oc2ccc3[nH]c(NC(=O)C4CC4)nc3c2)cc1` (stereo not shown) [Example 60-f, 4-(2-Methoxy-1-methyl-ethylamino)-benzenesulfonic acid 2-(cyclopropanecarbonyl-amino)-1H-benzoimidazol-5-yl ester]: half-maximal inhibition (IC50) required 1000 nM. The compound `COCCNC(=O)Nc1nc2cc(OS(=O)(=O)c3ccc(NC(C)CO)cc3)ccc2[nH]1` (stereo not shown) [Example 78-k, 4-(2-Hydroxy-1-methyl-ethylamino)-benzenesulfonic acid 2-[3-(2-methoxy-ethyl)-ureido]-1H-benzoimidazol-5-yl ester] returned an inhibition at 10 µM of 78%. For `CCOc1ccc(S(=O)(=O)Oc2ccc3nc(NC(=O)OC)[nH]c3c2)cc1` [Example 64-a, 4-Ethoxy-benzenesulfonic acid 2-methoxycarbonylamino-3H-benzoimidazol-5-yl ester], the 50% inhibitory concentration (IC50) worked out at 1000 nM. In other words, the single-digit micromolar range. As for `CCNC(=O)Nc1nc2cc(OS(=O)(=O)c3ccc(NC(C)CO)cc3)ccc2[nH]1` (stereo not shown) [Example 78-l, 4-(2-Hydroxy-1-methyl-ethylamino)-benzenesulfonic acid 2-[3-(2-ethyl)-ureido]-1H-benzoimidazol-5-yl ester], the inhibition at 10 µM was 100%. In turn, `O=C(NCCN1CCOCC1)Nc1nc2ccc(OS(=O)(=O)c3ccc(NCc4ccccn4)cc3)cc2[nH]1` [Example 82-h, 4-[(Pyridin-2-ylmethyl)-amino]-benzene sulfonic acid 2-[3-(2-morpholin-4-yl-ethyl)-ureido]-3H-benzimidazol-5-yl ester] gave an inhibition at 10 µM of 92%. Consider `O=C(Nc1nc2cc(OS(=O)(=O)c3ccc(NC4CCC4)cc3)ccc2[nH]1)C1CC1` [Example 60-ah, 4-Cyclobutylamino-benzenesulfonic acid 2-(cyclopropanecarbonyl-amino)-1H-benzoimidazol-5-yl ester], for which the 50% inhibitory concentration (IC50) was 550 nM. `CCC(C)(C)NC(=O)Nc1nc2cc(OS(=O)(=O)c3ccc(NC4CCCC4)cc3)ccc2[nH]1` [Example 58-z, 4-Cyclopentylamino-benzenesulfonic acid 2-[3-(1,1-dimethyl-propyl)-ureido]-1H-benzoimidazol-5-yl ester] registered a half-inhibitory concentration (IC50) of 2230 nM. On the same count and under the same terms, as for `CC(=O)NCCNc1ccc(S(=O)(=O)Oc2ccc3[nH]c(NC(=O)C4CC4)nc3c2)cc1` [Example 60-ac, 4-(2-Acetylamino-ethylamino)-benzenesulfonic acid 2-(cyclopropanecarbonyl-amino)-1H-benzoimidazol-5-yl ester], the figure is 800 nM; as for `COC(=O)Nc1nc2cc(OS(=O)(=O)c3ccc(F)cc3F)ccc2[nH]1` [Example 62-p, 2,4-Difluoro-benzenesulfonic acid 2-methoxycarbonylamino-1H-benzoimidazol-5-yl ester], 700 nM; as for `COC(=O)Nc1nc2cc(OS(=O)(=O)c3ccc(NCC(C)O)cc3)ccc2[nH]1` (stereo not shown) [Example 9, Methyl-5-(4-[2-methyl,2-hydroxyethyl]aminophenyl-sulfonyloxy) benzimidazole-2-carbamate], 2000 nM. Same read-out and setting: as for `CC(CO)Nc1ccc(S(=O)(=O)Oc2ccc3[nH]c(NC(=O)C4CC4)nc3c2)cc1` (stereo not shown) [Example 60-i, 4-(2-Hydroxy-1-methyl-ethylamino)-benzenesulfonic acid 2-(cyclopropanecarbonyl-amino)-1H-benzoimidazol-5-yl ester], the figure is 300 nM; as for “4-Benzylamino-benzenesulfonic acid 2-(cyclopropanecarbonyl-amino)-1H-benzoimidazol-5-yl ester [Example 60-a]”, 800 nM. Still for that read-out and setting: to `CCN(CC)CCCNC(=O)COc1ccc(S(=O)(=O)Oc2ccc3[nH]c(NC(=O)OC)nc3c2)cc1` [Example 66-b, 4-[(3-diethylamino-propylcarbamoyl)-methoxy]-benzenesulfonic acid 2-methoxycarbonylamino-1H-benzoimidazol-5-yl ester] belongs 3050 nM. `NC(=O)[C@H]1CCCN1c1ccc(S(=O)(=O)Oc2ccc3[nH]c(NC(=O)C4CC4)nc3c2)cc1` [Example 60-y, 4-(2R-Carbamoyl-pyrrolidin-1-yl)-benzenesulfonic acid 2-(cyclopropanecarbonyl-amino)-1H-benzoimidazol-5-yl ester]: inhibition was half-maximal at 2500 nM (IC50). On the same count and under the same terms, to `CNc1ccc(S(=O)(=O)Oc2ccc3[nH]c(NC(=O)C4CC4)nc3c2)cc1` [Example 60-b, 4-Methylamino-benzenesulfonic acid 2-(cyclopropanecarbonyl-amino)-1H-benzoimidazol-5-yl ester] belongs 150 nM. In turn, `COC(=O)Nc1nc2cc(OS(=O)(=O)c3c(C)noc3C)ccc2[nH]1` [Example 62-a, 3,5-Dimethyl-isoxazole-4-sulfonic acid 2-methoxycarbonylamino-1H-benzoimidazol-5-yl ester] returned an inhibition at 10 µM of 50%.

Consider `O=C(NCCN1CCOCC1)Nc1nc2cc(OS(=O)(=O)c3ccc(NCC4CCNCC4)cc3)ccc2[nH]1` [Example 78-t, 4-[(Piperidin-4-ylmethyl)-amino)-benzenesulfonic acid 2-[3-(2-morpholin-4-yl-ethyl)-ureido]-1H-benzoimidazol-5-yl ester], for which the inhibition at 10 µM came to 55%. As for `NC(=O)C1CCCCC1Nc1ccc(S(=O)(=O)Oc2ccc3[nH]c(NC(=O)C4CC4)nc3c2)cc1` (stereo not shown) [Example 60-ab, 4-(2-Carbamoyl-cyclohexylamino)-benzenesulfonic acid 2-(cyclopropanecarbonyl-amino)-1H-benzoimidazol-5-yl ester], the concentration for half-maximal inhibition (IC50) was found to be 4000 nM. Take `CCCCNc1ccc(S(=O)(=O)Oc2ccc3[nH]c(NC(=O)OC)nc3c2)cc1` [Example 12, Methyl-5-(4-butylaminophenylsulfonyloxy) benzimidazole-2-carbamate]: the inhibition at 10 µM came to 14%. Regarding `CCNCCNc1ccc(S(=O)(=O)Oc2ccc3[nH]c(NC(=O)C4CC4)nc3c2)cc1` [Example 60-s, 4-(2-Ethylamino-ethylamino)-benzenesulfonic acid 2-(cyclopropanecarbonyl-amino)-1H-benzoimidazol-5-yl ester], the IC50 was found to be 8000 nM. This counts as single-digit micromolar. Consider `O=C(NCc1ccccn1)Nc1nc2cc(OS(=O)(=O)c3ccc(OCc4ccccc4)cc3)ccc2[nH]1` [Example 78-n], for which the “inhibition of CDK4/cyclinD1 at 10 μM” value (at 10 μM) is recorded as 54% inhibition at 10 μM.
